The EC50 is the midpoint of the concentration-response curve.

Molecules are shown by their SMILES. Results filed as inconclusive are left out. The source made the active and inactive calls. How the calls were made is not given here.

The test system of the assay is C. albicans CaCi-8 + fluconazole, Alamar Blue growth, 48 h. The assay can be described thus: resistant C. albicans growth inhibition with fluconazole, dose response, CaCi-8 strain, Alamar Blue fluorescence (AID 2423). A general note: Alamar Blue is a resazurin reagent that responds to reducing activity.
With `N/C(Cc1ccc(Cl)c(Cl)c1)=N\OC(=O)c1cccs1`, the 50% effective concentration (EC50) was 893 nM.
For `CSc1ccc(/C=C/C(=O)Nc2ccccc2)cc1`, the EC50 was > 15000 nM (inactive).
Take `CC(C)NC(=S)N/N=C/c1ccc(C(C)(C)C)cc1`: the EC50 was > 16000 nM (inactive).
In the case of `COc1ccc2c(c1)/C(=C/c1cnc[nH]1)C(=O)N2`, the EC50 is 1250 nM.
Then `O=C(O)c1cnc(-c2ccccc2)nc1Sc1ccccc1Cl`, with > 16000 nM (inactive).
Turning to `COC(=O)Cn1nc(-c2ccccc2)c2ccccc21`, the EC50 was 2280 nM.
Regarding `CC(C)(C)NC(=S)N/N=C/c1cc(Br)c(O)c(Br)c1`, the EC50 is > 15000 nM (inactive).
Then `C[C@@H]1C[C@@H]2O[C@H]2/C=C\C=C\C(=O)Cc2c(Cl)c(O)cc(O)c2C(=O)O1`, with 234 nM.
Then `CCc1ccccc1NC(=S)N=Nc1c(O)n(C)c2ccc(S(=O)(=O)N3CCOCC3)cc12`, with 5160 nM.
On to `CCOC(=O)C1CCN(Cc2ccc(O)c3ncccc23)CC1`, for which the EC50 was > 15000 nM (inactive).
The result for `O=C(Nc1nnc(C2COc3ccccc3O2)o1)c1ccc(F)cc1` (configuration not stated) reads 910 nM.
In the case of `O=c1cc(CSc2ccc(Cl)cc2)nc(-c2ccccn2)[nH]1`, the EC50 was 531 nM.
Then `O=C(N/N=C/c1ccc(O)c(O)c1O)/C(=C/c1ccc([N+](=O)[O-])cc1)NC(=O)c1ccccc1`, with 807 nM.
Then `O=C(Nc1nnc(-c2ccc(F)cc2)o1)c1cccc([N+](=O)[O-])c1`, with 1010 nM; and `CCn1nc(/C=C/c2ccccc2)nc2c(=O)n(C)c(=O)nc1-2`, with 323 nM.
With `O=C(N/N=C/c1cc([N+](=O)[O-])ccc1O)C1C2CCCCC21` (configuration not stated), the EC50 was 2160 nM.
In the case of `Cc1n[nH]c(C)c1CCNCc1ccc(OCC(O)CN2CCCCC2)cc1` (configuration not stated), the EC50 is > 15000 nM (inactive).
The result for `Cc1oc2ccc(OC(=O)N(C)C)cc2c1C(=O)OC(C)C` reads 4000 nM.
On to `CCN(CC)S(=O)(=O)c1ccc(N/N=C/c2ccc(O)cc2O)nc1`, for which the EC50 was 644 nM.
Then `COc1ccc(/C=N\NC(=O)c2cc(O)c(O)c(O)c2)cc1CN1CCN(c2ccc(F)cc2)CC1`, with 1580 nM.
`NC1=NC[C@H](Cc2ccccc2)N1CCCCC1CCCCC1`: the EC50 is 7380 nM.
Take `O=C(O)c1ccccc1-c1ccccc1C(=O)Nc1cccc(-c2nc3ccccc3o2)c1`: the EC50 was 2240 nM.
The result for `CCc1cc(C(=O)NC2CCCc3c2cnn3-c2cccc(C)c2C)n(C)n1` (configuration not stated) reads 232 nM.
The result for `CCCC(=O)NC(c1ccc(C)cc1)c1ccc2cccnc2c1O` (configuration not stated) reads 715 nM; that for `O=c1c2ccccc2nc(/C=C/c2ccc([N+](=O)[O-])o2)n1-c1ccc(O)cc1`, < 120 nM.
With `Cc1cccc(NC(=S)NNC(=O)c2cc3c(s2)CCC(C)C3)c1C` (configuration not stated), the EC50 is 1370 nM.
For `CCN(Cc1ccccc1)S(=O)(=O)c1ccc(C(=O)Nc2nnc(-c3ccccc3OC)o2)cc1`, the EC50 is < 120 nM.
In the case of `COC(=O)c1c(-c2cccs2)csc1NC(=O)c1cccnc1`, the EC50 is 1290 nM.
The result for `CCCCNC(=O)/C(=C\c1ccc([N+](=O)[O-])o1)NC(=O)c1ccccc1` reads > 15000 nM (inactive); that for `COc1ccc(/C=N/NC(=O)c2cc(O)c(O)c(O)c2)cc1Cn1cc([N+](=O)[O-])cn1`, 1440 nM.
For `COC(CN(C)C(=O)c1ccc2c(c1)NC(=O)c1ccccc1S2)OC`, the EC50 was > 15000 nM (inactive).
Consider `Cc1ccc(SCCC(=O)N/N=C/c2ccccc2O)cc1`, for which the EC50 was 14000 nM.
Turning to `CN1CCN(C(=O)c2cnn(-c3ccccc3)c2NC(=O)c2ccccc2)CC1`, the EC50 is > 15000 nM (inactive).
Then `O=[N+]([O-])c1cccc(-c2cc(-c3cc(Br)ccc3O)[nH]n2)c1`, with 866 nM.
For `CCNc1nc(NC(C)C)nc(NC(C)(C)C)n1`, the EC50 was 1400 nM.
Regarding `COc1cccc(N=Nc2ccc(O)c3ncccc23)c1`, the EC50 is 505 nM.
Turning to `CC(=O)NC1CCCN(O)C(=O)/C=C(\C)CCOC(=O)C(NC(C)=O)CCCN(O)C(=O)/C=C(\C)CCOC(=O)C(NC(C)=O)CCCN(O)C(=O)/C=C(\C)CCOC1=O` (configuration not stated), the EC50 is 783 nM.

The values above are taken from PubChem BioAssay AID2423 (Broad Institute, 2010).
